PMC6254837, “Investigating Biological Activity Spectrum for Novel Styrylquinazoline Analogues” (Molecules, 2009)
Converted amounts (≈) assume the structure as drawn. “And” between values parts separate entries of the source, which are not always exact repeats. Equal values may be shown once. Read-outs that look alike come from different tables or passages of the source.

Key:
[1] = Lipophilicity HPLC determination (capacity factor k / calculated log k); assay type: physicochemical; conditions: RP-HPLC, C18, MeOH/H2O 55:45, non-buffered, isocratic
Excerpt: Some groups have used a C18 chromatographic column with methanol-water mobile phases to obtain log kw, i.e., the retention factor extrapolated to 0% organic modifier, as an alternative to log P [50]. The log kw is obtained by performing several measurements with various ratios of water/organic solvent. Nevertheless determination of log kw has some disadvantages in that it is time consuming due to the various measurements that need to be undertaken before calculation of log kw. The main reason for the measurement is that it is more convenient to perform a systematic study of log k of various heteroaromatic compounds using mobile phases containing around 50% methanol due to various intramolecular interactions between heteroatoms and substituents. Therefore this study was performed using methanol/water (55:45) as the mobile phase. The conditions (non-buffered mobile phase) were chosen with respect to conditions of biological evaluations, which are performed mostly under neutral conditions (pH ~ 7). The lipophilicity data can be strongly influenced by intramolecular interactions under the applied chromatographic conditions which were investigated in the paper. The HPLC separation module Waters Alliance 2695 XE and Waters Photodiode Array Detector 2996 (Waters Corp., Milford, MA, U.S.A.) were used. The chromatographic column Symmetry® C18 5 μm, 4.6 × 250 mm, Part No. WAT054275, (Waters Corp., Milford, MA, U.S.A.) was used. The HPLC separation process was monitored by Millennium32® Chromatography Manager Software, Waters 2004 (Waters Corp.). The mixture of MeOH p.a. (55.0%) and H2O-HPLC – Mili-Q Grade (45.0%) was used as a mobile phase. The total flow of the column was 0.9 mL/min, injection 30 μL, column temperature 30 °C and sample temperature 10 °C. The detection wavelength 210 nm was chosen. The KI methanolic solution was used for the dead time (tD) determination. Retention times (tR) were measured in minutes. The capacity factors k were calculated using the Millennium32® Chromatography Manager Software according to formula k = (tR - tD)/tD, where tR is the retention time of the solute, whereas tD denotes the dead time obtained via an unretained analyte.

[2] = test system: M. smegmatis MC2155; assay: In vitro antimycobacterial evaluation (alamarBlue, 96 well plate); assay type: cell-based; conditions: Mycolicibacterium smegmatis
[3] = test system: M. absessus CIT21/06; assay: as above; assay type: cell-based; conditions: read-out: MIC/IC90 M. absessus
[4] = test system: M. kansasii CIT11/06; assay: as above; assay type: cell-based; conditions: Mycobacterium kansasii, CIT11/06, 120 h, read-out: MIC/IC90 M. kansasii
[5] = test system: Mycobacterium avium complex CIT19/06; assay: as above; assay type: cell-based; conditions: 120 h, read-out: MIC/IC90 M. avium complex
[6] = test system: photosynthetic electron transport (PET) in spinach chloroplasts; assay: Inhibition of photosynthetic electron transport (PET) in spinach chloroplasts, DCPIP photoreduction; assay type: biochemical, Spinacia oleracea L.; conditions: phosphate buffer pH 7.2, DMSO up to 4%
Protocol: Chloroplasts were prepared from spinach (Spinacia oleracea L.) according to Masarovicova and Kralova. The inhibition of photosynthetic electron transport (PET) in spinach chloroplasts was determined spectrophotometrically (Genesys 6, Thermo Scientific, U.S.A.) using an artificial electron acceptor 2,6-dichlorophenol-indophenol (DCIPP) according to Kralova et al. and the rate of photosynthetic electron transport was monitored as a photoreduction of DCPIP. The measurements were carried out in phosphate buffer (0.02 mol/L, pH 7.2) containing sucrose (0.4 mol/L), MgCl2 (0.005 mol/L) and NaCl (0.015 mol/L). The chlorophyll content was 30 mg/L in these experiments and the samples were irradiated (~100 W/m^2) from 10 cm distance with a halogen lamp (250 W) using a 4 cm water filter to prevent warming of the samples (suspension temperature 22 °C). The studied compounds were dissolved in DMSO due to their limited water solubility. […] The inhibitory efficiency of the studied compounds was expressed by IC50 values, i.e. by molar concentration of the compounds causing 50% decrease in the oxygen evolution rate relative to the untreated control.

[7] = test system: photosynthetic electron transport (PET) in spinach chloroplasts; set-up: method as in earlier work; conditions: standard, read-out: PET inhibition IC50; cited from earlier work
[8] = MC2155, Middlebrook broth, 37 °C overnight, read-out: MIC/IC90 M. smegmatis
[9] = Middlebrook broth, 37 °C overnight
[10] = Middlebrook broth, 37 °C five days

| log k [1] | IC50 [6] [µM] | MIC [2, 8] [µg/mL] | MIC [3, 9] [µg/mL] | MIC [4, 10] [µg/mL] | MIC [5, 10] [µg/mL] | Structure (SMILES) | MIC ([2]; MC2155, read-out: MIC/IC90 M. smegmatis) [µg/mL] | MIC [3] [µg/mL] | MIC [4] [µg/mL] | MIC [5] [µg/mL] | IC50 [7] |
| --- | --- | --- | --- | --- | --- | --- | --- | --- | --- | --- | --- |
| 0.7047 | 362 | > 300 | > 300 | > 300 | > 300 | Cc1nc2ccccc2c(=O)n1CCO [Compound 2, 3-(2-Hydroxyethyl)-2-methylquinazolin-4(3H)-one] | – | – | – | – | – |
| 1.1148 | – | > 300 | > 300 | > 300 | > 300 | O=c1[nH]c(/C=C/c2ccccc2)nc2ccccc12 [Compound 3a, 2-(E)-Styrylquinazolin-4(3H)-one] | – | – | – | – | – |
| 1.1509 | – | > 100 | > 100 | > 100 | > 100 | COc1ccccc1/C=C/c1nc2ccccc2c(=O)[nH]1 [Compound 3b, 2-[(E)-2-(2-Methoxyphenyl)vinyl]quinazolin-4(3H)-one] | – | – | – | – | – |
| 1.1837 | – | > 100 | > 100 | > 100 | > 100 | COc1cccc(/C=C/c2nc3ccccc3c(=O)[nH]2)c1 [Compound 3c, 2-[(E)-2-(3-Methoxyphenyl)vinyl]quinazolin-4(3H)-one] | – | – | – | – | – |
| 1.1351 | 693 | > 100 | > 100 | > 100 | > 100 | COc1ccc(/C=C/c2nc3ccccc3c(=O)[nH]2)cc1 [Compound 3d, 2-[(E)-2-(4-Methoxyphenyl)vinyl]quinazolin-4(3H)-one] | – | – | – | – | – |
| 1.1982 | 391 | > 100 | 80 (≈ 259 µM) | 20 (≈ 64.9 µM) | 80 (≈ 259 µM) | COc1ccc(/C=C/c2nc3ccccc3c(=O)[nH]2)c(OC)c1 [Compound 3e, 2-[(E)-2-(2,4-Dimethoxyphenyl)vinyl]quinazolin-4(3H)-one] | – | – | – | – | – |
| 1.5059 | 1030 | > 300 | > 300 | > 300 | > 300 | O=c1[nH]c(/C=C/c2cccc(Cl)c2)nc2ccccc12 [Compound 3f, 2-[(E)-2-(3-Chlorophenyl)vinyl]quinazolin-4(3H)-one] | – | – | – | – | – |
| 1.4830 | – | > 100 | > 100 | > 100 | > 100 | O=c1[nH]c(/C=C/c2ccccc2Br)nc2ccccc12 [Compound 3g, 2-[(E)-2-(2-Bromophenyl)vinyl]quinazolin-4(3H)-one] | – | – | – | – | – |
| 1.5904 | 561 | > 100 | > 100 | > 100 | > 100 | O=c1[nH]c(/C=C/c2cccc(Br)c2)nc2ccccc12 [Compound 3h, 2-[(E)-2-(3-Bromophenyl)vinyl]quinazolin-4(3H)-one] | – | – | – | – | – |
| 1.5927 | 665 | > 100 | > 100 | > 100 | > 100 | O=c1[nH]c(/C=C/c2ccc(Br)cc2)nc2ccccc12 [Compound 3i, 2-[(E)-2-(4-Bromophenyl)vinyl]quinazolin-4(3H)-one] | – | – | – | – | – |
| 0.8005 | – | – | – | – | – | O=Cc1ccc(/C=C/c2nc3ccccc3c(=O)[nH]2)cc1 [Compound 3j, 2-[(E)-2-(4-Carbaldehydephenyl)vinyl]quinazolin-4(3H)-one] | – | – | – | – | – |
| 0.5510 | – | – | – | – | – | O=c1[nH]c(/C=C/c2ccc(O)c(O)c2O)nc2ccccc12 [Compound 3k, 2-[(E)-2-(2,3,4-Trihydroxyphenyl)vinyl]quinazolin-4(3H)-one] | – | – | – | – | – |
| 1.1088 | 285 | > 100 | > 100 | > 100 | > 100 | Clc1nc(/C=C/c2ccccc2)nc2ccccc12 [Compound 4a, 4-Chloro-2-(E)-styrylquinazoline] | – | – | – | – | – |
| 1.1497 | – | > 100 | 80 (≈ 270 µM) | 60 (≈ 202 µM) | 80 (≈ 270 µM) | COc1ccccc1/C=C/c1nc(Cl)c2ccccc2n1 [Compound 4b, 4-Chloro-2-[(E)-2-(2-methoxyphenyl)vinyl]quinazoline] | – | – | – | – | – |
| 1.1827 | 303 | > 100 | > 100 | 60 (≈ 202 µM) | > 100 | COc1cccc(/C=C/c2nc(Cl)c3ccccc3n2)c1 [Compound 4c, 4-Chloro-2-[(E)-2-(3-methoxyphenyl)vinyl]quinazoline] | – | – | – | – | – |
| 1.1337 | 390 | > 100 | > 100 | > 100 | > 100 | COc1ccc(/C=C/c2nc(Cl)c3ccccc3n2)cc1 [Compound 4d, 4-Chloro-2-[(E)-2-(4-methoxyphenyl)vinyl]quinazoline] | – | – | – | – | – |
| 1.1953 | 508 | > 100 | > 100 | > 100 | > 100 | COc1ccc(/C=C/c2nc(Cl)c3ccccc3n2)c(OC)c1 [Compound 4e, 4-Chloro-2-[(E)-2-(2,4-dimethoxyphenyl)vinyl]quinazoline] | – | – | – | – | – |
| – | – | – | – | – | – | CN(C)C(=O)Nc1ccc(Cl)c(Cl)c1 [DCMU, 3-(3,4-dichlorophenyl)-1,1-dimethylurea] | – | – | – | – | ~1.9 µM and 1.9 µM |
| – | – | 39 (≈ 284 µM) | > 100 | < 10 | < 10 | NNC(=O)c1ccncc1 [INH, isoniazid, reference compound] | – | – | – | – | – |

| Structure (SMILES) | log k [1] | IC50 [6] [µM] | MIC [2, 8] [µg/mL] | MIC [3, 9] [µg/mL] | MIC [4, 10] [µg/mL] | MIC [5, 10] [µg/mL] | MIC ([2]; MC2155, read-out: MIC/IC90 M. smegmatis) [µg/mL] | MIC [3] [µg/mL] | MIC [4] [µg/mL] | MIC [5] [µg/mL] | IC50 [7] |
| --- | --- | --- | --- | --- | --- | --- | --- | --- | --- | --- | --- |
| Cc1nc2ccccc2c(=O)[nH]1 [Compound 1, 2-Methylquinazolin-4(3H)-one] | 0.1170 | – | – | – | – | – | > 300 | > 300 | > 300 | > 300 | – |
